This is an account of results in patent US20210161783A1, “USE OF SPECIFIC BENZYLIDENE MALONATES FOR PROTECTING THE SKIN FROM CHEMICALLY INDUCED STRESS” (MERCK PATENT GMBH, priority 2018, published 2021).

Assay [1] deals with epidermis of living human skin explants. Put plainly: Ex-vivo study on living human skin explants: histological investigation (Masson's trichrome staining). Type of assay: cell-based. The following applies: for Epidermal morphological change compared with the untreated sample: explants treated with substance and the irritant, day 4, Masson staining. On the procedure:
(§1) An ex-vivo study was carried out on skin explants from a person […] (P1922-AB54). The explants are kept in a functioning state in a BEM culture medium (explants medium from BIO-EC) at 37° C. in a moist atmosphere containing 5% of CO2. 4 explants are used in each case in an experimental series of a substance, the control or the reference.
(§2) Compounds A and B to be investigated are employed in 0.5% solution in ethanol. The influence of ethanol on the explant is investigated in parallel (compound C=ethanol). The reference employed is the gel from DECLÉOR with the article number 56300 (gel D; decléor gelée hydratante anti-pollution), which is known for its protection of the skin against chemicals, heavy metals and diesel particles. The control used is an untreated sample which only comes into contact with the culture medium.
(§3) The explants are treated once daily for 4 days (day 0=D0, day 1=D1, day 2=D2 and day 3=D3) with the solutions to be tested containing compound A and B as well as compound C and gel D (2 μl per explant corresponding to 2 mg/cm^2). On D3, the solutions to be tested and the reference are treated 4 hours before application of the irritant.
(§4) On D3, the explants are treated with the irritant containing the metals/heavy metals and diesel particles, as described above, where a paper disc with a diameter of 9 mm is soaked with 30 μl of the irritant. The irritant acts on the respective explant for 24 hours.
On day 4 (D4), three explants are collected for each of the compounds to be investigated. Each explant is divided, and one part is frozen at −80° C., the second half is fixed in a buffered formol solution (formaldehyde solution). The fourth explant remains frozen at −80° C.
The explants fixed for 24 hours are dehydrogenated and impregnated in paraffin. Areas with a thickness of 5 μm are then cut and investigated under the microscope (for example Leica DMLB or Olympus BX43). Corresponding images are produced, using the Masson staining method (Masson's trichrome staining, Goldner variant), a standard colouring method in histology. […]

Assay [2] concerns malonic dialdehyde (MDA) production in living human skin explants. Put plainly: Ex-vivo study on living human skin explants: MDA investigation of the culture medium (TBAR, spectrofluorimetry). Format: cell-based. Particulars: for MDA concentration in the culture medium of the explant treated with substance and the irritant (average) / MDA concentration in the culture medium of the explant treated without irritant, but with substance (average): 0.5% solution in ethanol (gel D as such), day 4; for MDA concentration in the culture medium of the explant treated with substance and the irritant (average): 2 mg/cm^2 once daily D0-D3, irritant (metals/heavy metals + 0.1% diesel particles PM2.5) 24 h, irritant only 143.6, untreated 98.3; for Average MDA concentration in the presence of substance attributable to the irritant alone: difference with irritant minus without irritant, irritant alone without substance 45.3; for Lower MDA production (change) versus irritant only: explants with substance and irritant, compared with explant treated only with irritant; for MDA concentration in the culture medium of the explant treated without irritant, but with substance (average): no irritant, once daily D0-D3, untreated 98.3; for Hindrance of MDA production standardised to the amount of MDA released only by the irritant: standardised to MDA attributable to irritant alone (45.3 nmol/l). On the procedure: as §1, §2, §3, §4
The culture medium of the treated explants is investigated for the compound MDA. MDA stands for malonic dialdehyde (propanedial) and is a known marker for oxidative stress, as described above.
The culture medium of each investigated explant is mixed with a salt medium (HBBS Medium Hank's Balanced Salts) and a TBAR solution and heated in a water bath at 80° C. for 15 minutes. The TBAR solution contains thiobarbituric acid, hydrochloric acid and trichloroacetic acid. Many substances which are unrelated to the lipoperoxidation react with the thiobarbituric acid, for example glucose. After cooling, malonic dialdehyde (MDA) is extracted with butanol in a liquid/liquid extraction, and the then investigated by spectrofluorimetry (excitation 515 nm, emission: 550 nm). The MDA concentration indicated below is quoted in nmol/l.
1. For interpretation of the results, it is taken into account that the culture medium of the untreated explants (without irritant and without compounds A, B, C and gel D) also contains MDA on day 4.
For analysis of the results, this amount of MDA present on average in the untreated explants is therefore subtracted from the values obtained for the explant samples in order to determine the influence of MDA production owing to the irritant.

Assay [3] has as its system interleukin 8. Particulars: skin irritated by phorbol 12-myristate 13-acetate (PMA); cited from earlier work.

As to `CCCCC(CC)COC(=O)C(=Cc1cc(OC)c(O)c(OC)c1)C(=O)OCC(CC)CCCC` (centres unmarked) [compound A, di(2-ethylhexyl) 3,5-dimethoxy-4-hydroxybenzylidenemalonate], the “Epidermal morphological change compared with the untreated sample” value in assay [1] is given as “no epidermal change”. Also, in assay [2], the “MDA concentration in the culture medium of the explant treated with substance and the irritant (average)” value was 129.0 nmol/L; the “Average MDA concentration in the presence of substance attributable to the irritant alone” value is 34.3 nmol/L; the “Lower MDA production (change) versus irritant only” value amounted to 10%; the “MDA concentration in the culture medium of the explant treated without irritant, but with substance (average)” value is 94.7 nmol/L. The “Hindrance of MDA production standardised to the amount of MDA released only by the irritant” value in assay [2] was determined as 24%.
Regarding `COc1cc(C=C(C(=O)OC(C)C)C(=O)OC(C)C)ccc1O` [compound B, diisopropyl 3-methoxy-4-hydroxybenzylidenemalonate], the “Epidermal morphological change compared with the untreated sample” value in assay [1] was “an epidermal morphological change”. In addition, in assay [1] (explants with substance and irritant, compared with untreated control and with compound A plus irritant), the “Worsening of the condition of the epidermis (score of detectable changes)” value is “about 55%”. In assay [2], the “MDA concentration in the culture medium of the explant treated with substance and the irritant (average)” value worked out at 135.5 nmol/L; the “Average MDA concentration in the presence of substance attributable to the irritant alone” value was 41.9 nmol/L; the “Lower MDA production (change) versus irritant only” value was 6%; the “MDA concentration in the culture medium of the explant treated without irritant, but with substance (average)” value came to 93.6 nmol/L. The “Hindrance of MDA production standardised to the amount of MDA released only by the irritant” value in assay [2] amounted to 8%. Besides, in assay [3], the “Excretion of cytokines, in particular interleukin 8” value is on record as “reduces the excretion of cytokines”.
